Reference: PMC6213047, “Design of Antibacterial Agents: Alkyl Dihydroxybenzoates against Xanthomonas citri subsp. citri” (International Journal of Molecular Sciences, 2018)
Read-outs that look alike come from different tables or passages of the source.

Tests used:
[1] = test system: X. citri subsp. citri strain 306 (IBSBF 1594); experiment: MBC, REMA plates replicated to Petri dishes; assay type: cell-based, Xanthomonas citri subsp. citri; settings: Xanthomonas citri; Petri dishes from REMA plates, 29 °C, 24 to 48 h; read-out: MBC
Protocol: The minimal bactericidal concentration (MBC) was determined by observing the bacterial growth in Petri dishes transferred from the REMA plates.
(§1) The antibacterial activity of alkyl dihydroxybenzoates and the determination of minimum inhibition concentration (MIC) were performed by the fluorimetric method Resazurin Microtiter Assay (REMA) with some modifications. An overnight culture of X. citri subsp. citri strain 306 (IBSBF 1594) was grown in 20 mL in Nitrogen Yeast Glycerol (NYG) at 29 °C in constant agitation of 180–200 rpm. After 12 h, the Xcc inoculum was dispersed in NYG medium and distributed into a 96 well microtiter plate to a final volume of 100 μL per well (10^5 CFU per well). Stock solutions of tested compounds at 10 mg mL^−1 were prepared in dimethyl sulfoxide (DMSO) and dispersed in NYG medium to obtain 1% DMSO and the final compound concentration range of 0.78–100 μg mL^−1. The negative control was constituted of 100 μL culture medium. In addition, the copper oxychloride was tested as a comparison to alkyl dihydroxybenzoates and kanamycin (20 μg mL^−1), which was used as a control antibiotic. The plate was subsequently incubated at 29 °C for 12 h, and 15 μg mL^−1 freshly prepared resazurin solution in water was added to each well, and the plate was incubated for 2 h. The fluorescence was determined on a Synergy H1 (BioTek, Winooski, VT, USA) microplate reader using the excitation and emission filters at wavelengths of 530 and 590 nm respectively. After the REMA assay, the minimum bactericidal concentration (CBM) assay was performed using a 96-pin stainless steel plate replicator, accurately transferring the wells from the REMA plate to Petri dishes Petri dishes were incubated in oven B.O.D. at 29 °C for 24 to 48 h. The experiments were performed in triplicate.

[2] = test system: X. citri subsp. citri strain 306 (IBSBF 1594); experiment: MIC by Resazurin Microtiter Assay (REMA); assay type: cell-based, Xanthomonas citri subsp. citri; settings: Xanthomonas citri, 12 h, REMA, NYG medium, 29 °C
Protocol: The antibacterial potential of carboxylic acids and their esters were compared to copper oxychloride (a commercial active often used to combat citrus canker). Minimal inhibitory concentration (MIC) values were determined by REMA assay, which measures cellular respiratory activity.
as §1

[3] = test system: MRC-5 (human lung fibroblast cell line); experiment: Cytotoxicity MTT assay, MRC-5; assay type: cell-based
Protocol: This test is based on the reduction of 3-(4,5-dimethyl-2-thiazolyl)-2,5-diphenyl-2-tetrazole bromide by viable cells, with formation of violet insoluble formazan crystals. Five cell lines were used in order to evaluate the cytotoxic effect of the compounds as a whole.
The cytotoxicity of compounds 4, 16, 28 and copper oxychloride was determined by MTT assay. The cell lines used were HaCaT (human keratinocyte cell line—CLS 300493), Huh-7.5 (human hepatoma cell line—ATCC® PTA-8561), MRC-5 (human lung fibroblast cell line—ATCC CCL-171), VERO (monkey kidney epithelial cell line—ATCC® CCL81) and ACHN (human renal adenocarcinoma cell line—ATCC® CRL1611). The cells were cultured in appropriate medium recommended by the American Type Culture Collection.
The assay was performed with the concentration of 10^4 cells for both cell lines, distributed in 96-well plates and incubated at 37 °C in a 5% CO2 controlled atmosphere oven for 24 h. After the incubation period, the cells were treated with the compounds with a range of 1.56–200 μmol L^−1 and incubated for 24 h. The supernatant was removed, then 100 μL of 3-(4,5-dimethyl-2-thiazolyl)-2,5-diphenyl-2H-tetrazolium (MTT) salt at 1 mg mL^−1 diluted in DMEM medium (Gibco Life Technologies, Gaithersburg, MD, USA) was added and incubated for 30 min. Subsequently, the MTT was removed, then 100 μL of DMSO under agitation for 5 min at 60 rpm was added. The plates were read at 570 nm in a FLUOstar Omega/BMG LABTECH plate reader, Offenburg, BW, DE. We carried out the experiments in triplicate and three independent events for statistical analysis (GraphPad Software, San Diego, CA, USA). The MTT assay is based on the tetrazolium salt (yellow-colored) reduction to formazan (purple-colored) by metabolically active cells.

[4] = test system: Xcc cells membrane integrity; experiment: Cellular membrane permeability of Xcc, Live/Dead BacLight kit; assay type: cell-based, Xanthomonas citri subsp. citri; settings: compounds at ¼ MIC, 15 min; nisin as positive control
Protocol: Membrane integrity was measured by using the commercial assay Live/Dead BacLight® bacterial viability kit (Invitrogen, Carlsbad, CA, USA). We observed cells with intact membrane in fluorescent blue (SYTO 9) and cells with disturbance or affected membrane integrity in red or pink (propidium iodide). The data analyses were plotted as the percentage of cells permeated by propidium iodide (Figure 2).
Phase contrast microscopy was used to observe changes in cell shape and signs of cell division alteration using an objective lens with a magnification of 100×. To evaluate the Xcc cells’ membrane integrity, the BacLight® kit was used. Mixtures of SYTO 9 dyes and propidium iodide (PI). SYTO 9 (blue) can stain nucleic acids in general—with intact or damaged membranes. On the other hand, PI (red) penetrates only the bacteria with damaged membranes, causing overlap in the fluorescence of SYTO 9. Therefore, using a mixture of the dyes, the bacteria with disturbed cell membranes are stained in fluorescent red and the intact cell membranes are stained in fluorescent blue. […] Cellular immobilization was performed on slides containing 1% agarose gel in 0.85% saline buffer. The slides were prepared with 1.0 mL of the agarose solution, which was dispersed in optical microscopy slides and on each slide another slide was placed so that the gel continued like a thin film and was of homogeneous height. The slides were dried at room temperature for approximately 20 min and opened at the time of use, when 10 μL of the cell suspension was deposited in the center and covered with the cover slip. The cells were visualized using the Olympus BX-61 optical microscope equipped with OrcaFlash 2.8 monochrome camera (Hamamatsu, Shizuoka, Japan). Cell Sensation software v11 (Olympus) was used to document and analyze the images.

[5] = Homo sapiens, MRC5, 24 h, read-out: IC50 MRC-5, MTT, 24 h treatment
[6] = MTT, 24 h treatment, read-out: IC50 MRC-5

SMILES	MBC [1]	MIC ([2]; read-out: MIC in μM)	IC50 [3, 5]	IC50 [3, 6]	percentage of cells permeated by propidium iodide [4]	MIC ([2]; read-out: MIC)
CCCCCCCOC(=O)c1cc(O)ccc1O [Compound 16]	25 µg/mL	80 µM	> 100 µM	145 ± 6.29 µM	41.3%	
CCCCCCCOC(=O)c1ccc(O)c(O)c1 [Compound 28]	50 µg/mL	88 µM	> 100 µM	129 ± 2.12 µM	93.8%	22.2 µg/mL
CCCCCCCOC(=O)c1ccc(O)cc1O [Compound 4]	25 µg/mL	52 µM	> 100 µM	127 ± 4.59 µM	13.9%	
